Source: US12495798B2, “Nicotinamide compound and herbicidal composition comprising compound” (KOREA RESEARCH INSTITUTE OF CHEMICAL TECHNOLOGY, priority 2019, dated 2025)

Columns and labels:
Format in all cases: in vivo
fall panicum [1] = test: Herbicidal activity test against upland field weeds (foliar treatment test); conditions: 50 g ai/ha, scale 0-100; for pest or weed control at 50 g/ha: Panicum dichotomiflorum
Procedure, shortened: (§1)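 Greenhouse-grown plants (30±5 °C, 14/10 h light/dark) foliar hand-sprayed with compound in 50% acetone, 0.1% Tween-20 at 50 or 75 g a.i./ha. Control visually scored 0 (none) to 100 (complete) versus untreated after 14 days, or 21 days if needed.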

barnyard grass = test: as above; parameters: key to Foliar treatment herbicidal activity, barnyard grass: 0 (no control); 100 (complete control); conditions: 50 g ai/ha, scale 0-100; for pest or weed control at 50 g/ha: Echinochloa crus-galli
Procedure, shortened: as §1

indian jointvetch = test: as above; conditions: 50 g ai/ha, scale 0-100
Procedure, shortened: as §1

sorghum = test: Herbicidal activity test against upland field weeds (soil treatment test); parameters: key to Soil treatment herbicidal activity, Sorghum: 0 (no control); 100 (complete control); conditions: 50 g ai/ha, scale 0 (no control) to 100 (complete control)
Procedure, shortened: (§2)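 Pre-emergence soil surface spray, day after sowing, into sandy loam pots with fertilizer; compounds at 50 or 75 g a.i./ha in 50% acetone, 0.1% Tween-20. Greenhouse at 30±5 °C, 14/10 h light/dark; visual control rated 0–100 against untreated after 14 days (21 if needed).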

black nightshade = test: Herbicidal activity test against upland field weeds (foliar treatment test); parameters: key to Foliar treatment herbicidal activity, black nightshade: 0 (no control); 100 (complete control); conditions: 50 g ai/ha, scale 0-100
Procedure, shortened: as §1

fall panicum [2] = test: Herbicidal activity test against upland field weeds (soil treatment test); conditions: 50 g ai/ha, scale 0 (no control) to 100 (complete control); for pest or weed control at 50 g/ha: Panicum dichotomiflorum
Procedure, shortened: as §2

bindweed = test: Herbicidal activity test against upland field weeds (foliar treatment test); parameters: key to Foliar treatment herbicidal activity, Bindweed: 0 (no control); 100 (complete control); conditions: 50 g ai/ha, scale 0-100
Procedure, shortened: as §1

crabgrass = test: as above; parameters: key to Foliar treatment herbicidal activity, Crabgrass: 0 (no control); 100 (complete control); conditions: 50 g ai/ha, scale 0-100; for pest or weed control at 50 g/ha: Digitaria sanguinalis
Procedure, shortened: as §1

corn = test: Phytotoxicity test for field crops (soil treatment test); parameters: key: 0 (no harm); 9 (complete withered)
Procedure, shortened: (§3)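 Crops sown in fertilized sterile soil (pH 6.1; clay 21%, silt 17%, sand 52%); soil spray 1 d later, 19˜300 g a.i./ha, 100 ml/m^2; greenhouse 30±5° C, 14/10 h; visual phytotoxicity 0–9 at 10 and 20 DAT vs untreated.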

soybean = test: as above; parameters: key: 0 (no harm); 9 (complete withered)
Procedure, shortened: as §3

rice = test: as above; parameters: key: 0 (no harm); 9 (complete withered)
Procedure, shortened: as §3

wheat = test: as above; parameters: key: 0 (no harm); 9 (complete withered)
Procedure, shortened: as §3

cotton = test: as above; parameters: key: 0 (no harm); 9 (complete withered)
Procedure, shortened: as §3

cocklebur = test: Herbicidal activity test against upland field weeds (soil treatment test); parameters: key to Soil treatment herbicidal activity, Cocklebur: 0 (no control); 100 (complete control); conditions: 50 g ai/ha, scale 0 (no control) to 100 (complete control)
Procedure, shortened: as §2

[3] = 50 g ai/ha, Corn (10 days after treatment)
[4] = 50 g ai/ha, Corn (20 days after treatment)
[5] = 100 g ai/ha, Corn (10 days after treatment)
[6] = 100 g ai/ha, Corn (20 days after treatment)
[7] = 50 g ai/ha, Soybean (10 days after treatment)
[8] = 50 g ai/ha, Soybean (20 days after treatment)
[9] = 100 g ai/ha, Soybean (10 days after treatment)
[10] = 100 g ai/ha, Soybean (20 days after treatment)
[11] = 50 g ai/ha, Rice (10 days after treatment)
[12] = 50 g ai/ha, Rice (20 days after treatment)
[13] = 100 g ai/ha, Rice (10 days after treatment)
[14] = 100 g ai/ha, Rice (20 days after treatment)
[15] = 50 g ai/ha, Wheat (10 days after treatment)
[16] = 100 g ai/ha, Wheat (10 days after treatment)
[17] = 100 g ai/ha, Wheat (20 days after treatment)
[18] = 50 g ai/ha, Cotton (10 days after treatment)
[19] = 50 g ai/ha, Cotton (20 days after treatment)
[20] = 100 g ai/ha, Cotton (10 days after treatment)
[21] = 100 g ai/ha, Cotton (20 days after treatment)
[22] = 50 g ai/ha, Wheat (20 days after treatment)

| SMILES | Soil treatment phytotoxicity, Corn (corn; [3]) | Soil treatment phytotoxicity, Corn (corn; [4]) | Soil treatment phytotoxicity, Corn (corn; [5]) | Soil treatment phytotoxicity, Corn (corn; [6]) | Soil treatment phytotoxicity, Soybean (soybean; [7]) | Soil treatment phytotoxicity, Soybean (soybean; [8]) | Soil treatment phytotoxicity, Soybean (soybean; [9]) | Soil treatment phytotoxicity, Soybean (soybean; [10]) | Soil treatment phytotoxicity, Rice (rice; [11]) | Soil treatment phytotoxicity, Rice (rice; [12]) | Soil treatment phytotoxicity, Rice (rice; [13]) | Soil treatment phytotoxicity, Rice (rice; [14]) | Soil treatment phytotoxicity, Wheat (wheat; [15]) | Soil treatment phytotoxicity, Wheat (wheat; [16]) | Soil treatment phytotoxicity, Wheat (wheat; [17]) | Soil treatment phytotoxicity, Cotton (cotton; [18]) | Soil treatment phytotoxicity, Cotton (cotton; [19]) | Soil treatment phytotoxicity, Cotton (cotton; [20]) | Soil treatment phytotoxicity, Cotton (cotton; [21]) | Soil treatment herbicidal activity, Cocklebur (cocklebur) | other results |
| --- | --- | --- | --- | --- | --- | --- | --- | --- | --- | --- | --- | --- | --- | --- | --- | --- | --- | --- | --- | --- | --- |
| Cn1ncnc1COCc1nc(C(F)(F)F)ccc1C(=O)Nc1nnnn1C [Compound No. 1-102, 2-(((1-methyl-1H-1,2,4-triazol-5-yl)methoxy)methyl)-N-(1-methyl-1H-tetrazol-5-yl)-6-(trifluoromethyl)nicotinamide] | 0 | 0 | 0 | 0 | 0 | 0 | 0 | 0 | 5 | 5 | 5 | 6 | 0 | 0 | 0 | 0 | 0 | 1 | 2 | 0 | pest or weed control at 50 g/ha (fall panicum [1]): 70%; pest or weed control at 50 g/ha (barnyard grass): 80%; pest or weed control at 50 g/ha (indian jointvetch): 80%; Soil treatment herbicidal activity, Sorghum (sorghum): 0; pest or weed control at 50 g/ha (black nightshade; Solanum nigrum): 95%; pest or weed control at 50 g/ha (fall panicum [2]): 70%; pest or weed control at 50 g/ha (bindweed): 60%; pest or weed control at 50 g/ha (crabgrass): 70% |
| Cn1nnc(COCc2nc(C(F)(F)F)ccc2C(=O)N(C(=O)c2ccccc2)c2nnnn2C)n1 [Compound No. 2-68, N-benzoyl-N-(1-methyl-1H-tetrazol-5-yl)-2-(((2-methyl-2H-tetrazol-5-yl)methoxy)methyl)-6-(trifluoromethyl)nicotinamide] | 0 | 0 | 0 | 0 | 0 | 0 | 0 | 0 | 6 | 7 | 8 | 9 | 0 | 0 | 0 | 1 | 5 | 3 | 9 | 0 | pest or weed control at 50 g/ha (fall panicum [1]): 98%; Foliar treatment herbicidal activity, barnyard grass (barnyard grass): 100; pest or weed control at 50 g/ha (indian jointvetch): 98%; plant injury at 50 g/ha (sorghum; Sorghum): 40%; Foliar treatment herbicidal activity, black nightshade (black nightshade): 100; pest or weed control at 50 g/ha (fall panicum [2]): 90%; Foliar treatment herbicidal activity, Bindweed (bindweed): 100; pest or weed control at 50 g/ha (crabgrass): 98%; Soil treatment phytotoxicity, Wheat (wheat; [22]): 0 |
| Cn1nnnc1COc1nc(C(F)(F)F)ccc1C(=O)Nc1nnnn1C [Compound No. 1-1, N-(1-methyl-1H-tetrazol-5-yl)-2-((1-methyl-1H-tetrazol-5-yl)methoxy)-6-(trifluoromethyl)nicotinamide] | 0 | 0 | 0 | 0 | 3 | 5 | 3 | 7 | 1 | 7 | 3 | 9 | 0 | 0 | 1 | 2 | 6 | 2 | 7 | 0 | pest or weed control at 50 g/ha (fall panicum [1]): 95%; pest or weed control at 50 g/ha (barnyard grass): 98%; pest or weed control at 50 g/ha (indian jointvetch): 30%; Soil treatment herbicidal activity, Sorghum (sorghum): 0; Foliar treatment herbicidal activity, black nightshade (black nightshade): 100; pest or weed control at 50 g/ha (fall panicum [2]): 98%; Foliar treatment herbicidal activity, Crabgrass (crabgrass): 100; Soil treatment phytotoxicity, Wheat (wheat; [22]): 0 |
| Cn1cnc(COCc2nc(C(F)F)ccc2C(=O)Nc2nnnn2C)n1 [Compound No. 2-85] | 0 | 0 | 0 | 0 | 2 | 0 | 3 | 0 | 0 | 0 | 1 | 0 | 0 | 0 | 0 | 0 | 0 | 2 | 0 | 25 | Foliar treatment herbicidal activity, Fall panicum (fall panicum [1]): 84; Foliar treatment herbicidal activity, barnyard grass (barnyard grass): 99; Foliar treatment herbicidal activity, Indian jointvetch (indian jointvetch): 97; Soil treatment herbicidal activity, Sorghum (sorghum): 0; Foliar treatment herbicidal activity, black nightshade (black nightshade): 100; Soil treatment herbicidal activity, Fall panicum (fall panicum [2]): 20; Foliar treatment herbicidal activity, Bindweed (bindweed): 99; Foliar treatment herbicidal activity, Crabgrass (crabgrass): 60; Soil treatment phytotoxicity, Wheat (wheat; [22]): 0 |
